A value given as a limit tells only on which side of the number the result lay.

This experiment deals with rat embryo ventral mesencephalic cells. Description: Neuroprotection assay (NMDA-induced neuroexcitotoxic injury, 3H-dopamine uptake). The following applies: VM cell culture, NMDA 100-400 μM for 20 hours, high affinity 3H-dopamine uptake. The format is cell-based, Sprague-Dawley rat. The text has this:
The neuroprotective activity of the compounds of this invention may be assayed using rat embryo ventral mesencephalic cells in culture which are subsequently exposed to the glutamate receptor agonist NMDA. This assay is described in detail in the example section.
The ventral mesencephalic region was dissected out of embryonic day 15 Sprague-Dawley rat embryos (Harlan), dissociated into single cell suspension by a combination of trypsinization and trituration (Costantini et al., Neurobiol Dis., pp. 97-106 (1998). Dissociated VM cells were plated into poly-L-ornithine-coated 96-well plates at a density of 85,000 cells/well in 100 uL of DMEM supplemented with 18% heat-inactivated horse serum, 0.24% glucose, 2 mM glutamine and 50 u/ml pernicillin/streptomycin and incubated in a 5% CO2 incubator. After one day in culture (DIV1), the medium was replaced with 100 μL of a defined medium (DMEM supplemented with 1×N2 cocktail (Gibco-BRL), 0.12% glucose, 2 mM glutamine, and 50 units/ml penicillin/streptomycin) containing DMSO or various concentrations of the compounds of this invention. On DIV5, neuroexcitotoxic injury was induced by the addition of various concentrations of the glutamate receptor agonist NMDA (100-400 μM). Cultures were incubated with the neurotoxin for 20 hours and the effects of neurophilin compounds were assessed using high affinity ^3H-dopamine uptake according to a procedure published by Park and Mytilineou [Brain Res., 599, pp. 83-97 (1992)].
Broadly, the EC50 is the concentration that produces a half-maximal response. Take `CN(C)CC(=O)N1CCC(Cc2ccccc2)CC1` [Compound 1]: the EC50 is greater than 500 nM. As for `CCN(CC(=O)N1CCN(c2ccccc2)CC1)Cc1ccccc1` [Compound 2], the EC50 was greater than 500 nM. With `C[C@H](c1ccccc1)N(C)CC(=O)N1CCN(c2ccccc2)CC1` [Compound 3] the figure was greater than 500 nM; with `C[C@@H](c1ccccc1)N(C)CC(=O)N1CCN(c2ccccc2)CC1` [Compound 4], greater than 500 nM; with `C[C@@H](C(=O)N1CCC(Cc2ccccc2)CC1)N(C)Cc1ccccc1` [Compound 5], less than 100 nM. `CCN(CC(=O)N1CCC(Cc2ccccc2)CC1)Cc1ccccc1` [Compound 6]: the EC50 lay in the range of 100 to 500 nM. The result for `C[C@H](c1ccccc1)N(C)CC(=O)N1CCC(Cc2ccccc2)CC1` [Compound 7] reads 100 to 500 nM; that for `C[C@@H](c1ccccc1)N(C)CC(=O)N1CCC(Cc2ccccc2)CC1` [Compound 8], 100 to 500 nM. In the case of `C[C@@H](C(=O)N1CCN(c2ccc(F)cc2)CC1)N(C)Cc1ccccc1` [Compound 9, 2-(Benzyl-methylamino)-1-[4-(4-fluorophenyl)-piperazin-1-yl]-propan-1-one], the EC50 was less than 100 nM. The result for `CN(C)C1(C(=O)N2CCC(Cc3ccccc3)CC2)CCc2ccccc21` (centres unmarked) [Compound 10] reads 100 to 500 nM; that for `C[C@@H](C(=O)N1CCC(Cc2ccc(F)cc2)CC1)N(C)Cc1ccccc1` [Compound 11, 2-(Benzyl-methylamino)-1-[4-(4-fluorobenzyl)-piperidin-1-yl]-propan-1-one], less than 100 nM; that for `CN(C)CC(=O)N1CCN(C(c2ccc(F)cc2)c2ccc(F)cc2)CC1` [Compound 12], greater than 500 nM. The result for `CCC(C)[C@@H](C(=O)N1CCC(Cc2ccccc2)CC1)N(C)Cc1ccccc1` (some centres unmarked) [Compound 13] reads greater than 500 nM; that for `O=C(CN(Cc1ccccc1)Cc1ccccc1)N1CCN(c2ccccc2)CC1` [Compound 14], greater than 500 nM; that for `O=C(CN(Cc1ccccc1)Cc1ccccc1)N1CCC(Cc2ccccc2)CC1` [Compound 15], greater than 500 nM.

As to `CCN(CC(=O)N1CCN(C(c2ccc(F)cc2)c2ccc(F)cc2)CC1)Cc1ccccc1` [Compound 16], the EC50 is greater than 500 nM. Take `C[C@H](c1ccccc1)N(C)CC(=O)N1CCN(C(c2ccc(F)cc2)c2ccc(F)cc2)CC1` [Compound 17]: the EC50 is greater than 500 nM.

In the case of `C[C@@H](c1ccccc1)N(C)CC(=O)N1CCN(C(c2ccc(F)cc2)c2ccc(F)cc2)CC1` [Compound 18], the EC50 was greater than 500 nM.

With `C[C@@H](C(=O)N1CCN(C(c2ccc(F)cc2)c2ccc(F)cc2)CC1)N(C)Cc1ccccc1` [Compound 19, 2-(Benzyl-methylamino)-1-{4-[bis-4-(4-fluorophenyl)-methyl]-piperazin-1-yl]-propan-1-one], the EC50 was 100 to 500 nM. With `O=C(CN(Cc1ccccc1)Cc1ccccc1)N1CCN(C(c2ccc(F)cc2)c2ccc(F)cc2)CC1` [Compound 20] the figure was greater than 500 nM.

The values are drawn from patent publication US6949655B2, “Acyclic piperidine derivatives” (priority 2001, dated 2005).
